From ChEMBL document CHEMBL1136000, “Synthesis of a small library of 3-(carboranylalkyl)thymidines and their biological evaluation as substrates for human thymidine kinases 1 and 2” (J Med Chem, 2002)

Key:
[1] = target: T1, Thymidine kinase, cytosolic (Homo sapiens) (UniProt P04183)
T1 sequence (whole entry): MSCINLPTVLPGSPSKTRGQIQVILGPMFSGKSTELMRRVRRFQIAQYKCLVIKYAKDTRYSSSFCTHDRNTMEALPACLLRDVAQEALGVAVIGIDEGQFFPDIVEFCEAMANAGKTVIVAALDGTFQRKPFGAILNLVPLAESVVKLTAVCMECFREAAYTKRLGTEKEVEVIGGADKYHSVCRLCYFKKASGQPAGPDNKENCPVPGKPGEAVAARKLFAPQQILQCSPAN
Description: Rate of phosphorylation in the presence of 1% DMSO using Phosphoryl transfer assay in recombinant human cytosolic thymidine kinase 1 at 10 uM

[2] = target: T1, Thymidine kinase, cytosolic (Homo sapiens); remark: listed apart in the source
Description: Rate of phosphorylation in the presence of 1% DMSO using Phosphoryl transfer assay in recombinant human cytosolic thymidine kinase 1 at 5 uM

[3] = target: Thymidine kinase 2, mitochondrial (Homo sapiens) (UniProt O00142)
Chain of Thymidine kinase 2, mitochondrial (Homo sapiens) (O00142 whole entry, looked up): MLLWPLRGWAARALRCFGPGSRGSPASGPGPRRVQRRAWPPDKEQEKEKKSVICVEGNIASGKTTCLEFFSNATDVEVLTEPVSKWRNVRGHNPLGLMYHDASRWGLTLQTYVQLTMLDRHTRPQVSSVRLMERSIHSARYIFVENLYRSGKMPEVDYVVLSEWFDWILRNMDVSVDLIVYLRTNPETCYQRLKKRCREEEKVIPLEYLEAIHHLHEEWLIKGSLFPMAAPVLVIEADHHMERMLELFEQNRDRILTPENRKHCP

| Structure (SMILES) | Rate of phosphorylation [1] | Rate of phosphorylation [2] | Rate of phosphorylation [3] |
| --- | --- | --- | --- |
| Cc1cn([C@H]2C[C@H](O)[C@@H](CO)O2)c(=O)n(CCCCCCCC2CC2CC(O)CO)c1=O (some centres undefined) | 0.13 | 0.13 | < 0.001 |
| Cc1cn([C@H]2C[C@H](O)[C@@H](CO)O2)c(=O)n(CCC2CC2)c1=O | 0.39 | 0.42 | 0.002 |
| Cc1cn([C@H]2C[C@H](O)[C@@H](CO)O2)c(=O)n(CCCCCCC2CC2CC(O)CO)c1=O (some centres undefined) | 0.32 | 0.22 | 0.002 |
| Cc1cn([C@H]2C[C@H](O)[C@@H](CO)O2)c(=O)n(CCCC2CC2CC(O)CO)c1=O (some centres undefined) | 0.4 | 0.43 | 0.004 |
| Cc1cn([C@H]2C[C@H](O)[C@@H](CO)O2)c(=O)n(CCCCCC2CC2)c1=O | 0.41 | 0.57 | 0.001 |
| Cc1cn([C@H]2C[C@H](O)[C@@H](CO)O2)c(=O)n(CCCCC2CC2CC(O)CO)c1=O (some centres undefined) | 0.21 | 0.21 | 0.003 |
| Cc1cn([C@H]2C[C@H](O)[C@@H](CO)O2)c(=O)n(CCCC2CC2)c1=O | 0.3 | 0.27 | 0.002 |
| Cc1cn([C@H]2C[C@H](O)[C@@H](CO)O2)c(=O)n(CCCCCCCC2CC2)c1=O | 0.11 | 0.15 | < 0.001 |
| Cc1cn([C@H]2C[C@H](O)[C@@H](CO)O2)c(=O)n(CCCCCC2CC2CC(O)CO)c1=O (some centres undefined) | 0.41 | 0.39 | 0.002 |
| Cc1cn([C@H]2C[C@H](O)[C@@H](CO)O2)c(=O)[nH]c1=O | 1 | 1 | 1 |
| Cc1cn([C@H]2C[C@H](O)[C@@H](CO)O2)c(=O)n(CCCCC2CC2)c1=O | 0.13 | 0.17 | 0.003 |
| Cc1cn([C@H]2C[C@H](O)[C@@H](CO)O2)c(=O)n(CCCCCCC2CC2)c1=O | 0.28 | 0.31 | < 0.001 |
| Cc1cn([C@H]2C[C@H](O)[C@@H](CO)O2)c(=O)n(CCC2CC2CC(O)CO)c1=O (some centres undefined) | 0.45 | 0.49 | 0.002 |
